Assay results: US9206195B2, “Dihydrothienopyrimidines” (Boehringer Ingelheim International GmbH, priority 2011, dated 2015)

Test system: Aβ42 production (γ-secretase) in H4 neuroglioma cells stably expressing the human APP695 isoform
Test: Screening for preferential inhibition of Aβ42 vs. total Aβ production in H4 neuroglioma cells (Meso Scale Discovery electrochemiluminescence assays on supernatant)
Type: cell-based
Conditions: for IC50: 22 hours incubation, Aβ42 in supernatant, read-out: Aβ42 cellular IC50; for Ratio Aβ(total)/Aβ42 (Aβ total IC50/Aβ42 IC50): higher ratio = more specific inhibition of Aβ42 over Aβ total
Method: Cells were plated out to near confluency. The compounds to be tested were received as 10 mM stocks in 100% DMSO. A dilution series was initially generated in 100% DMSO and then diluted 200-fold in cell culture media such that the tested concentration range was 30 μM to 0.1 nM and the final DMSO concentration was 0.5%. The diluted compounds were incubated with the cells for 22 hours in an incubator at 37° C. and 5% CO2. Aβ42 as well as Aβ total levels were then measured post-incubation from the supernatant of the cells. Aβ42 levels were determined using a specific electrochemiluminescence assay provided by Meso Scale Discovery (Catalog #L21CA-1) according to the manufacturer's protocol. Aβ total levels were likewise determined using a specific electrochemiluminescence assay provided by Meso Scale Discovery (Catalog #L21ZA-1) according to the manufacturer's protocol.
In order to absolutely define the described compounds as modulators of γ-Secretase as opposed to simply inhibitors of γ-Secretase, measurements of not only Aβ42 but also Aβ total are performed.

| SMILES | IC50 | Ratio Aβ(total)/Aβ42 (Aβ total IC50/Aβ42 IC50) |
| --- | --- | --- |
| COc1cc(Nc2nc3c(c(N4CCOCC4)n2)SC2(CCC2)C3)ccc1-n1cnc(C)c1 [Example 6] | 140 nM | 55 |
| COc1cc(Nc2nc3c(c(C(C)C)n2)SC2(CCCCC2)C3)ccc1-n1cnc(C)c1 [Example 18] | 7590 nM | 2 |
| COc1cc(Nc2nc3c(c(C(C)C)n2)[S+]([O-])C2(CCCCC2)C3)ccc1-n1cnc(C)c1 (centres unmarked) [Example 21] | 19700 nM | 1 |
| COc1cc(Nc2nc3c(c(N4CCOCC4)n2)[S+]([O-])C2(CCC2)C3)ccc1-n1cnc(C)c1 (centres unmarked) [Example 8] | 3250 nM | >9 |
| COc1cc(Nc2nc3c(c(N(C)C)n2)[S+]([O-])C2(CCCCC2)C3)ccc1-n1cnc(C)c1 (centres unmarked) [Example 15] | 300 nM | 61 |
| COc1cc(Nc2nc3c(c(N4CCCCC4)n2)SC2(CCOCC2)C3)ccc1-n1cnc(C)c1 [Example 16] | 820 nM | >36 |
| Cc1cn(-c2ccc(Nc3nc4c(c(N(C)C)n3)[S+]([O-])C3(CCC3)C4)cc2C#N)cn1 (centres unmarked) [Example 23] | 1190 nM | 25 |
| COc1cc(Nc2nc3c(c(N4CCCCC4)n2)[S+]([O-])C2(CCOCC2)C3)ccc1-n1cnc(C)c1 (centres unmarked) [Example 17] | 530 nM | 51 |
| COc1cc(Nc2nc(C)c3c(n2)CC2(CCC2)[S+]3[O-])ccc1-n1cnc(C)c1 (centres unmarked) [Example 11] | 1550 nM | 19 |
| COc1cc(Nc2nc(C)c3c(n2)CC2(CCC2)S3)ccc1-n1cnc(C)c1 [Example 10] | 130 nM | 110 |
| Cc1cc(-c2ccc(Nc3nc4c(c(N(C)C)n3)SC3(CCC3)C4)cc2)ccn1 [Example 20] | 1380 nM | 8 |
| COc1cc(Nc2nc3c(c(N4CCCCC4)n2)SC2(CCCCC2)C3)ccc1-n1cnc(C)c1 [Example 13] | 130 nM | 57 |
| Cc1cn(-c2ccc(Nc3nc4c(c(N(C)C)n3)SC3(CCC3)C4)cc2C#N)cn1 [Example 19] | 370 nM | 55 |
| COc1cc(Nc2nc3c(c(N4CCCCC4)n2)SC2(CCC2)C3)ccc1-n1cnc(C)c1 [Example 3] | 90 nM | 85 |
| COc1cc(Nc2nc3c(c(N4CCCCC4)n2)[S+]([O-])C2(CCCCC2)C3)ccc1-n1cnc(C)c1 (centres unmarked) [Example 14] | 120 nM | 100 |
| COc1cc(Nc2nc3c(c(N(C)C)n2)SC2(CCC2)C3)ccc1-n1cnc(C)c1 [Example 4] | 130 nM | 50 |
| COc1cc(Nc2nc3c(c(NC4CCCC4)n2)SC2(CCC2)C3)ccc1-n1cnc(C)c1 [Example 1] | 190 nM | 37 |
| COc1cc(Nc2nc3c(c(N(C)C)n2)SC2(CCCCC2)C3)ccc1-n1cnc(C)c1 [Example 12] | 120 nM | 61 |
| COc1cc(Nc2nc3c(c(NC4CCCC4)n2)[S+]([O-])C2(CCC2)C3)ccc1-n1cnc(C)c1 (centres unmarked) [Example 5] | 220 nM | 54 |
| Cc1ncc(-c2ccc(Nc3nc4c(c(N(C)C)n3)SC3(CCC3)C4)cn2)o1 [Example 2] | 520 nM | 51 |
| Cc1cc(-c2ccc(Nc3nc4c(c(N(C)C)n3)[S+]([O-])C3(CCC3)C4)cc2)ccn1 (centres unmarked) [Example 22] | 770 nM | 12 |
| COc1cc(Nc2nc3c(c(N(C)C)n2)SC2(CCC2)C3)ccc1-c1cnc(C)o1 [Example 7] | 100 nM | 242 |
